Source: ChEMBL document CHEMBL3507680, “University of Dundee, Gates Library screen for HepG2 cell viability”

experiment: Human HepG2 cell viability assay in 384 well format; format: toxicity, cell-based; parameters: dose 125 nL, time 70.5 hour; concentration not given beside the values; conditions: HepG2 cells, read-out: Inhibition

Point of comparison: `O=C(COc1coc(CN2CCCC2)cc1=O)NCc1ccccc1Cl`, cytotoxicity at 70.5 h 3.62%. Against it:
- CN(C)C(=O)CSc1nnc(CCNC(=O)OC(C)(C)C)o1 — higher, 22.7%
- CCCS(=O)(=O)NCC1OCCc2cn(CC3CCOCC3)nc21 (stereo unspecified) — higher, 30.2%
- Cc1cnc(N2CCC3(CC2)CC3C(=O)NCC2CC2)nc1 (stereo unspecified) — higher, 11.9%
- COc1ccc(N2CCOCC3(CCCN(c4cnccn4)C3)C2)cc1 (stereo unspecified) — lower, -1.59%
- COCC1CN(Cc2ccoc2)Cc2cn(CC3CCCC3)nc21 (stereo unspecified) — lower, -4.4%
- O=S(=O)(C1CC1)N1CCC2(CC1)COC(COc1ccccn1)C2 (stereo unspecified) — lower, -5.06%
- CCS(=O)(=O)N1CCC2(CC1)CC(OCC1CC1)CO2 (stereo unspecified) — lower, -7.89%
- COCC1CN(Cc2ccoc2)Cc2cn(CC3CCOCC3)nc21 (stereo unspecified) — lower, -9.14%
- COc1ccc(N2CCCC3(C2)CN(c2ncccn2)CCO3)cc1 (stereo unspecified) — lower, -2.45%
- CCc1ccc(C(=O)N2CCCn3nnc(Cn4cccn4)c3C2)cc1 — lower, -5.86%
- O=S(=O)(C1CC1)N1CCOCC2(CN(c3ncccn3)CCO2)C1 (stereo unspecified) — lower, -9.2%
- O=C(NCc1ccccn1)[C@@H]1COC[C@H]2CNC[C@H]21 — lower, -12.9%
- O=S(=O)(C1CC1)N1CCC2(CC1)COC(COc1cccnc1)C2 (stereo unspecified) — lower, -10.2%
- CCOCC1CN(Cc2ccco2)Cc2ccnn2C1 (stereo unspecified) — lower, -5.17%
- CCC(CC)CN1C[C@@H]2OCCN(Cc3cnn(C)c3)[C@@H]2C1 — lower, -3.01%
- Cn1cc(CN2CCO[C@H]3CN(Cc4ccco4)C[C@H]32)cn1 — lower, -2.62%
- Cc1ccoc1C(=O)N1CCCC2(CCCN2S(C)(=O)=O)C1 (stereo unspecified) — lower, -3.55%
- CS(=O)(=O)N1CCCC12CCCN(C(=O)c1ccc[nH]1)C2 (stereo unspecified) — higher, 9.82%
- c1cncc(COCC2CN(Cc3ccncc3)Cc3ccnn3C2)c1 (stereo unspecified) — lower, 1.86%
- CS(=O)(=O)N1CCCCC12CCN(C(=O)c1ccccc1)C2 (stereo unspecified) — lower, -8.78%
- c1cncc(CN2CCC3(CCCN(c4nncs4)C3)C2)c1 (stereo unspecified) — lower, -7.53%
- CN1CCN(C(=O)c2n[nH]c3c2CN(Cc2nccs2)CC3)CC1 — lower, -12%
- c1ccc(CN2Cc3ccnn3CC(COCc3cccnc3)C2)nc1 (stereo unspecified) — lower, -9.03%
- CCc1nn(-c2cc(Oc3cc(C)ccc3C)nc(C)n2)c(N)c1C#N — higher, 28.3%
- CC1CCN(C(=O)Cn2nc(Br)nc2Br)CC1 — lower, -5.71%
- Cn1c(N)c2c(=O)n(C)c(-c3ccc(Cl)cc3Cl)cc2c(C#N)c1=O — lower, -4.83%
- Cc1cnc(N2C(=O)CSC2c2ccccc2)s1 (stereo unspecified) — lower, -9.48%
- CN(C)CCCNC(=O)CNC(=O)N1CCc2c([nH]c3ccccc23)C1 — higher, 35.2%
- CC(=O)c1cn(CCC(=O)NCCC(=O)O)c2ccccc12 — lower, -12.4%
- COc1cccc2c1ccn2CC(=O)N[C@@H](CCSC)C(=O)O — lower, -3.11%
- O=C1CC(c2cccc(O)c2)c2c(c(C(=O)O)cn2-c2ccccc2)N1 (stereo unspecified) — higher, 4.21%
- O=C1CC(c2cccnc2)c2c(c(C(=O)O)cn2-c2ccccc2)N1 (stereo unspecified) — lower, -1.92%
- Cc1ccc2c(ccn2CC(=O)NC[C@@H]2CCCN3CCCC[C@H]23)c1 — lower, -2.59%
- COC(=O)CC(c1ccccc1)c1oc(C)cc(=O)c1O (stereo unspecified) — higher, 6.19%
- CC[C@H](C)[C@H](NC(=O)c1ccccc1-n1cnnn1)C(=O)OC — higher, 33.9%
- CC(C)[C@H](NC(=O)NC1CCS(=O)(=O)C1)C(=O)Nc1cccnc1 (stereo partly specified) — higher, 9.45%
- Cn1ccc2c(C(=O)N3CCC(C(N)=O)CC3)cccc21 — lower, -2.97%
- O=C(Cn1nc2c(cc1=O)CCCC2)N[C@@H](C(=O)O)c1ccccc1 — lower, -3.48%
- COc1ccc(C2CC(=O)Nc3c2cnn3C)cc1 (stereo unspecified) — higher, 4.68%
- CC(=O)c1cccc(NC(=O)COc2c(C)n(C)ccc2=O)c1 — lower, -7.44%
- O=C(COc1coc(CN2CCCCC2)cc1=O)Nc1ccc(Cl)cc1 — lower, -3.76%
- Cn1ncc2c1NC(=O)CC2c1ccc(O)cc1 (stereo unspecified) — higher, 7.25%
- Cc1n[nH]c2c1C(c1cnn(C)c1)SCC(=O)N2 (stereo unspecified) — lower, -6.84%
- CCn1c(=O)nc2n1C(=O)N(c1cccc(Cl)c1)C2 — lower, -1.37%
- COc1ccc(C2SC(C)=Nc3c2c(=O)[nH]n3C2CCCCC2)cc1O (stereo unspecified) — lower, 2.14%
- COCC(=O)NCCn1ccc2c(OC)cccc21 — lower, -6.28%
- CC(C)n1ncc2c1NC(=O)CC21C(=O)Nc2c(Cl)cc(Cl)cc21 (stereo unspecified) — lower, -8.73%
- CC(C)n1ncc2c1NC(=O)CSC2C(C)(C)C (stereo unspecified) — lower, -2.79%
- O=C(CCc1nc2cccnc2[nH]1)Nc1cccnc1 — lower, -16.2%
- CC(C)CC1SCC(=O)Nc2c1cnn2-c1ccc(F)cc1 (stereo unspecified) — lower, -6.67%
- O=C1CSC(c2ccc(O)c(Cl)c2)c2c(n(C3CCOCC3)[nH]c2=O)N1 (stereo unspecified) — higher, 6.82%
- O=C1CC(c2ccsc2)c2c(n(C3CCOCC3)[nH]c2=O)N1 (stereo unspecified) — higher, 14.8%
- COc1ccc(C(=O)NCCCn2ccnc2)c(OC)n1 — higher, 39.9%
- COc1ccc(OC)c(Sc2ncccc2C(=O)N(C)CCC#N)c1 — higher, 5.96%
- CN(C)c1ccc(C(=O)NCC2(c3ccccc3)CCOCC2)cc1 — lower, -10.7%
- COc1ccc(OC)c(NC(=O)N2CCCC2c2ccco2)c1 (stereo unspecified) — lower, -12.9%
- O=C(CSC1=NS(=O)(=O)c2cc(F)ccc2N1)c1ccc(Cl)cc1 — lower, -17.3%
- COC(=O)c1cccc(C(=O)N2CCN(c3cccc(C)c3C)CC2)n1 — lower, -14.1%
- CCn1nc(C)c2ccn(CC(=O)NC3CCCC3)c(=O)c21 — lower, -1.39%
- CNC(=O)CSc1nc2c(cnn2Cc2ccc(F)cc2)c(=O)[nH]1 — higher, 13.5%
- COC(=O)CCc1c(C)nn(-c2nc(C)cc(=O)[nH]2)c1C — higher, 36.4%
- CN1C(=O)C(C)(C)COc2cc(NS(=O)(=O)c3ccccc3)ccc21 — higher, 8.64%
- CN1C(=O)C(C)(C)COc2cc(NS(=O)(=O)Cc3ccccc3)ccc21 — higher, 9.19%
- CCc1cc(=O)[nH]c2nnc(SCC(=O)OC)n12 — higher, 9.93%
- CCCNC(=O)CSc1nnc2[nH]c(=O)cc(CC)n12 — higher, 11.1%
- CCc1cnc2c(c1Nc1ccncc1)c(=O)n(C)c(=O)n2C — higher, 20.3%
- CCCNC(=O)Cn1nc(C(C)C)c2cnn(C(C)(C)C)c2c1=O — lower, -0.765%
- COc1cccc(CNC(=O)CC2CSc3ncc(C)c(=O)n32)c1 (stereo unspecified) — higher, 10.1%
- CCOC(=O)c1sc(NC(=O)CN(C)S(C)(=O)=O)c(C#N)c1C — higher, 26.2%
- O=c1nc(SCc2cccnc2)c2c(n1CCO)CCC2 — lower, -7.99%
- O=c1nc(SCc2ccncc2)c2c(n1CCO)CCCC2 — higher, 14.9%
- CCCc1nnsc1C(=O)NCC1CCN(c2ccccn2)CC1 — lower, -6.19%
- O=C(Cn1cnc(-c2ccccc2)cc1=O)Nc1ccncc1 — lower, -9.96%
- COCCNC(=O)CCc1c(C)nn(-c2nc(C)c(C)c(=O)[nH]2)c1C — lower, -1.63%
- COc1cccc(C(=O)NCC(O)c2cccs2)c1 (stereo unspecified) — lower, -0.864%
- O=C(NCC(O)c1cccs1)c1cccc(Cl)c1 (stereo unspecified) — lower, -2.42%
- Cc1ccc(N2CCN(C(=O)COc3nccc(C)n3)CC2)nn1 — higher, 16%
- O=C(NCC1(CO)CC1)c1cccc2ccccc12 — lower, 2.2%
- Cc1noc(C)c1CCC(=O)N1CCN(CCn2cccn2)CC1 — higher, 14.6%
- O=S(=O)(NCC1CCN(c2cnccn2)CC1)c1c(F)cccc1F — lower, -9.72%
- CNc1cc(CCNC(=O)CC(C)C)nc(-c2ccccn2)n1 — lower, -7.32%
- CNc1cc(CCNS(=O)(=O)c2ccccc2)nc(-c2ccccn2)n1 — lower, -14.6%
- CNc1cc(CCNC(=O)C2CCCC2)nc(-c2ccccn2)n1 — lower, -8.09%
- CCC1c2cccn2CCN1S(=O)(=O)N1CCOCC1 (stereo unspecified) — higher, 11.2%
- CCOc1ccc([C@@H]2N[C@H](c3nccs3)Cc3ccsc32)cc1OC — lower, -7.07%
- COc1cccc([C@@H]2N[C@H](c3nccs3)Cc3ccsc32)c1OC — lower, -12.9%
- CCOc1ccc(CC(=O)N2CCN(c3nccn3C)CC2)cc1 — lower, -2.2%
- O=C(Cc1ccc(F)cc1)N1CCN(CC(O)C2CC2)CC1 (stereo unspecified) — lower, -1.1%
- OC(CN1CCN(Cc2ccc(F)cc2)CC1)C1CC1 (stereo unspecified) — lower, -1.06%
- OC(CN1CCN(Cc2ccc(F)c(F)c2)CC1)C1CC1 (stereo unspecified) — lower, 0.728%
- N#Cc1ccc(N2CCC3(CCCN(c4ccccn4)C3)C2)nc1 (stereo unspecified) — lower, -1.5%
- O=S(=O)(C1CC1)N1CC[C@H](OCC2CC2)[C@@H]1Cc1cccnc1 — lower, -4.98%
- CN(C)C(=O)C1CCC2(CCN(Cc3cnn(C)c3)CC2)C1 (stereo unspecified) — lower, -7.73%
- Cc1noc(C)c1CN1C[C@H](OCC(=O)N(C)C)[C@H]2OCCC[C@H]21 — lower, -6.96%
- Cc1cccc(CN2C[C@@H]3OCCN(c4cnccn4)[C@@H]3C2)n1 — lower, -4.63%
- O=C(c1cccnc1)N1CCOC2(COCCN(c3cncnc3)C2)C1 (stereo unspecified) — lower, -9.01%
- Cc1noc(C)c1CN1C[C@H](OCC(=O)N(C)C)[C@H]2COC[C@H]21 — lower, -6.89%
- CN(C)S(=O)(=O)N1C[C@H]2CCC[C@@]2(COCc2cccnc2)C1 — lower, -6.86%
- Cc1noc(C)c1CN1C[C@H](OCC2CC2)[C@H]2COC[C@H]21 — lower, -7.4%
- COCC(=O)N1CCOC2(CCCN(c3cnccn3)C2)C1 (stereo unspecified) — lower, -9.25%
- O=C(N1CCCC1)N1CC[C@H]2OCC[C@@]2(COc2ncccc2F)C1 — lower, -1.3%
- Fc1ccc(CN2CCC3(CCCN(c4nncs4)C3)C2)cc1 (stereo unspecified) — lower, -2.74%
- O=C(c1ncccn1)N1CC[C@H]2OCC[C@@]2(COc2ccccn2)C1 — lower, -6.64%
- c1coc(CN2Cc3ccnn3CC(COCC3CC3)C2)c1 (stereo unspecified) — lower, -6.27%
- O=C(NCc1ccccn1)[C@@H]1COC[C@H]2CN(c3ncccn3)C[C@H]21 — lower, -6.07%
- c1cncc(OCC2CC3(CCN(CC4CC4)CC3)CO2)c1 (stereo unspecified) — lower, -10.5%
- Cc1nc(C)n(CC2CN(Cc3cccnc3)Cc3nccn3C2)n1 (stereo unspecified) — lower, -1.38%
- Cc1ncsc1CN1C[C@H](OCc2ccncc2)[C@H]2OCCC[C@H]21 — lower, -8.48%
- Cc1cccc(-c2noc(C)c2C(=O)NC2CCCOC2)c1 (stereo unspecified) — lower, -10.9%
- O=C(NCCc1ccccc1)C1CCC(Cn2cnnn2)CC1 (stereo unspecified) — lower, -2.34%
